Test results taken from patent US10782294B2, “Peptides derived from myosin 19 and methods of use thereof” (TECHNION RESEARCH & DEVELOPMENT FOUNDATION LIMITED, priority 2014, dated 2020).
Entries after “also recorded” stand apart in the source; their conditions may differ. Read-outs that look alike come from different tables or passages of the source.

How the values were obtained:
[1] = tested on: Myo19-eGFP expressing U2OS cells; assay: Myo19 foci formation / translocation to cell periphery in Myo19-eGFP expressing cells treated with cytoskeleton interfering drugs; assay type: cell-based
Description: Cells were rinsed once and incubated in starvation medium (Glucose free DMEM supplemented with 20 mM Hepes-KOH pH 7.4, 5 mg/ml BSA, 100 U/ml penicillin, 100 μg/ml streptomycin and 0.25 μg/ml amphotericin B). Cytoskeleton interfering drugs (final concentration: 0.2 μM Latrunculin B or 0.75 μg/ml Nocodazole) were first diluted in growth media and then added to the cells.
(§1) Transfections were performed using Polyethylenimine (PEI). Adherent U2OS cells were plated a day before transfection on plastic or glass bottom dishes and allowed to adhere overnight (ON). Plasmid DNA and PEI were diluted separately in 150 mM NaCl, combined and complex formation was allowed for 25 min at RT before addition to the cells and incubation ON. Hoechst 33342 (0.75 μg/ml Sigma), MitoTracker (30 nM, Molecular probes) and Propidium iodide (1 μg/ml, Sigma) were added 15 min prior to imaging. HaloTag constructs were stained by incubating the cells with HaloTag TMR Ligand ON (25 nM, Promega). The cells were imaged using InCell Analyzer 2000, Confocal Zeiss LSM 700 or Confocal Zeiss LSM 710 in an environmental chamber.
Mitochondria function as an intracellular biosensor that responds to environmental changes, stress cues and physiological stimuli. Therefore, it is essential to test the function of myosin 19 and its relation to mitochondrial distribution and morphology in cells under starvation conditions as well under drugs, which disrupt cytoskeletal structures. Starvation stress was chosen because it strongly shifts mitochondrial dynamics of fission and fusion, inducing hyperfusion of the mitochondrial network, and that fission and fusion depend on force generation on the mitochondria. Therefore, it was assessed whether or not starvation-induced hyperfusion is accompanied by any differential cellular localization of myosin 19. Myosin 19-eGFP was overexpressed and cells were starved for four hrs. […] The inventors further tested if myosin 19 OMM binding motif is essential for this starvation-induced localization (FIG. 3A, middle two panels). […] This lends further support to the interpretation that myosin 19^Δ860-890-eGFP cannot compete with the endogenous myosin 19 because of its inability to bind the mitochondria. The inventors further assessed whether this transition of myosin 19 to the cell periphery requires myosin 19 motor activity utilizing an overexpression of myosin 19 tail (FIG. 3A, bottom two panels, FIG. 8) and an ATPase dead mutant G 135R (FIG. 9, FIG. 8). […] Indeed, pre-treatment of cells with 0.2 μM Latrunculin B that disrupts actin filaments of the cytoskeleton for 30 min inhibited the starvation-induced translocation of myosin 19 and the mitochondria to the cell periphery (FIG. 3B, FIG. 10). […]

[2] = tested on: mitochondria (MitoTracker) or ER; assay: Colocalization of eGFP-fused myosin 19 tail constructs with mitochondria (MitoTracker) or ER (SRβ); assay type: cell-based; details: myosin 19^824-970-eGFP and mutant variants ectopically expressed
Description: Generation of peGFP-myosin 19 mutations and truncations were performed using high fidelity PCR enzymes with phosphorylated primers (Phusion, T4 PNK, NEB). We used peGFP-myosin 19 (peGFP-N1b was kindly provided by Dr. Ayoub (Technion-IIT)) or peGFP-myosin 19 tail (aa 824-970) as template with a single exception for peGFP-myosin 19^860-890 where peGFP-myosin 19^860-970 was used. The products were ligated using T4 ligase (NEB, Promega) and sequenced.
as §1
In accordance to the finding in the cells (FIG. 2A), Myo19^860-890-eGFP was co-purified with mitochondria, however unlike the endogenous Myo19, it appears to be more sensitive to extraction by salt. Carbonate completely extracts Myo19^860-890-eGFP from purified mitochondria, similarly to endogenous Myo19 (FIG. 22). The difference in salt sensitivity may be due to insufficient length of the motif to be fully anchored in the membrane as in the WT endogenous protein. Another possibility is that a certain part of Myo19^860-890-eGFP was correctly anchored, where the rest was present there nonspecifically, e.g. through dimerization of eGFP. […] To further explore the OMM targeting the motif sequence was examined. Although there is no consensus sequence targeting proteins to the OMM, it was shown that a moderately hydrophobic motif flanked by positive residues is required for OMM localization. […]

[3] = target: lipid SUVs with a phospholipid composition similar to the OMM (55% PC, 30% PE, 13% PI, 2% DOPS); assay: Equilibrium binding of peptides to OMM mimicking vesicles by fluorescence anisotropy
Description: (§2) Phosphatidylcholine (PC, Sigma), Phosphatidylethanolamine (PE, Sigma), Phosphatidylinositol (PI, Sigma) and Dioleoyl phosphatidylserine (DOPS, Avanti) were mixed in chloroform and evaporated under nitrogen. The vesicles were then resuspended in 40 mM Hepes pH 7.1, 150 mM NaCl and subjected to 10 freeze-thaw cycles in liquid nitrogen and kept in −80° C. The vesicles were thawed and sonicated for five min at low intensity; insoluble material was removed by centrifugation at 100,000×gav for 20 min. Vesicles were used within two days after sonication.
(§3) Equilibrium binding by Fluorescence Anisotropy (FA) measurements was performed with PCI spectrofluorimeter (ISS, Champaign, Ill.) designed as T-format for simultaneous acquisition on two emission channel monochromators equipped with automatic polarizers. Samples were equilibrated (60 min, RT) and then measurements were done with intrinsic fluorescence of the peptide with λex=280 nm using vertical polarized light and the emitted vertical and horizontal polarized light was monitored at 90° with double emission monochromators at λem=325 nm. (i-factor for correction of the different gain between the dual PMT detectors was calculated as described by the instrument manufacturer. The binding model for a simple bimolecular reaction was:
[formula] [formula] Under the condition of Ptot<<KD then the general solution for this equilibrium binding scheme is in the form of the following quadratic equation:
[formula] Ptot is monitoring species; Vtot is titrating species and [PV] is the bound species. The total fluorescence and anisotropy were fitted globally (Origin Lab 9.0) according to Otto et al. Biophys J, 1994. 67(6): p. 2511-21.
Myo19 peptides were purchased as crude preparations and resuspended in 10% Acetonitrile (ACN) and either 0.1% (for Myo19^851-895) or 0.01% (for Myo19^858-883 and Myo19^858-RK883SS) trifluoroacetic acid (TFA). The peptides were then loaded on a C-18 column (Waters) and separated by reverse phase chromatography. Peaks were analyzed by MALDI-TOF and verified to be of the right molecular weight corresponding to the peptide size. The peptides were then dried and resuspended in either 5% DMF (Myo19^858-883 and Myo19^RK883SS) or 16% DMF (Myo19^851-895) in binding buffer (40 mM Hepes pH 7.1, 150 mM NaCl). Myo19^851-895, Myo19^858-883, Myo19^858-RK883SS peptides were from GL Biochem (Shanghai, China). Zeta1 was from Sigma (Saint Louis, Mo., USA).
To characterize Myo19 membrane binding motif, the binding of a synthetic peptide representing Myo19 residues 851-895 (SEQ ID NO: 12, Table 3) to lipid SUVs (Small unilamellar vesicles) with a phospholipid composition similar to the OMM (55% PC, 30% PE, 13% PI, 2% DOPS (de Kroon et al., 1997)) was tested. Binding was followed via fluorescence anisotropy (FA) relying on two tryptophan residues that are present in the peptide. […] Equilibrium binding of Myo19 peptide to vesicles was monitored by titrating peptide versus increasing vesicles concentration. […] Therefore, to account for the FTI change during the FA measurements, global fitting to both signals arising from peptide binding to vesicles to compensate for the change in fluorescence yield during FA measurements was applied. […] In-vitro binding of a hydrophilic peptide Zeta1 (SEQ ID NO:15, Table 3), was much weaker (˜2.5 folds) compared to the Myo19 peptide (124.4±18.7 μM), supporting the notion that Myo19-OMM binding is mediated by hydrophobic interactions (FIG. 23). Although our newly identified membrane motif is essential and sufficient for OMM localization in cells, the cellular specificity may be achieved by unique, yet unidentified cytosolic or others mitochondrial components.

[4] = target: ER mimicking vesicles (20% PE, 66 & PC, 9% PI, 3% DOPS); assay: Equilibrium binding of peptides to ER mimicking vesicles by fluorescence anisotropy; details: FA/FTI global fit; peptide concentrations 4 μM; N=1; read-out: affinity to ER mimicking vesicles
Description: as §2, §3
[formula] […]

[5] = FA/FTI global fit, peptide concentrations 4 μM, N=1, read-out: affinity to OMM mimicking vesicles

Molecule: C/C1=C/C(=O)O[C@@H]2C[C@@H](CC[C@H](C)/C=C\CC1)O[C@@](O)([C@@H]1CSC(=O)N1)C2 [Latrunculin B]
- cells showing <2 Myo19 foci ([1]; 0.2 μM latrunculin B 30 min prior to starvation): < 30 % of the cells
- starvation-induced translocation of myosin 19 and the mitochondria to the cell periphery ([1]; 0.2 μM, 30 min pre-treatment, then starvation): inhibited

Molecule: IIRL*WVLGLVLANTAMGVGSF*QRKLVVWACL (IIRLWVLGLVLANTAMGVGSFQRKLVVWACL) [Peptide P865V, myosin 19 tail-eGFP construct with point mutation P865V]
- Localization [2]: dual localization to both the ER and the mitochondria; also recorded: ER/Mito-

Molecule: EAIIRLWPLGLVLANTAMGVGSFQSS [Myo19^858-RK882/3SS, corresponding ER mutant of the shorter Myo19 peptide]
- Kd [3, 5]: 49 ± 17.2 µM

Molecule: COC(=O)Nc1nc2ccc(C(=O)c3cccs3)cc2[nH]1 [nocodazole]
- localization of myosin 19 and mitochondria after nocodazole treatment ([1]; 0.75 μg/ml nocodazole for three hrs, no starvation): induced the same altered localization
- cells with induced Myo19 foci formation ([1]; nocodazole treatment, complete media conditions): > 80 % of the cells

Molecule: IIRL*WPLGLVLANTAMGVGSF*QSSLVVWACL (IIRLWPLGLVLANTAMGVGSFQSSLVVWACL) [RK882/3SS, myosin 19 tail-eGFP construct with R882S and K883S in combination]
- Localization ([2]; listed as SEQ ID NO: 10): shift of the intracellular localization of Myo19 to the ER

Molecule: EAIIRLWPLGLVLANTAMGVGSFQRK [Myo19^858-883, shorter peptide derived from Myo19 membrane motif]
- Kd [3, 5]: 45 ± 14.1 µM
- Kd [4]: 50.5 ± 22 µM

Molecule: FRWGKPVGKKRRPVKVYPNGAEDESAEAFPLE [Zeta1, reference compound]
- Kd [3, 5]: 124 ± 18.7 µM
- binding weaker compared to the Myo19 peptide ([3]; Zeta1 versus Myo19 peptide): ~2.5 folds

Molecule: PLQTRLLEAIIRLWPLGLVLANTAMGVGSFQRKLVVWACLQLPRG [Myo19^851-895, synthetic peptide representing Myo19 residues 851-895]
- effect of [NaCl] on the magnitude of binding to vesicles ([3]; [NaCl] up to 1 M, peptide and vesicles 35 μM each): no effect
- Kd ([3]; global fit of FA and FTI, peptide concentration 35 μM, 40 mM Hepes pH 7.1, 150 mM NaCl, read-out: apparent binding constant KD): 281 ± 50 µM

B1: IIRL*WPLGLVLANTAMGVGSF*QRKLVVWACL (protein, UniProt Q96H55 824-970, looked up, fragment)
chain: MACLAAKELDGVEEKHFSQAPCSLSTSPLQTRLLEAIIRLWPLGLVLANTAMGVGSFQRKLVVWACLQLPRGSPSSYTVQTAQDQAGVTSIRALPQGSIKFHCRKSPLRYADICPEPSPYSITGFNQILLERHRLIHVTSSAFTGLG
modifications: eGFP fusion
- Localization [2]: Mito-
